Laboratory results: patent US20220073941A1, “HERBICIDE-RESISTANT CAMELINA SATIVA PLANTS, AND VARIANT CAMELINA ACETOHYDROXYACID SYNTHASE POLYPEPTIDES” (priority 2019, published 2022)
Values joined by “and” are separate entries in the source; they are usually repeats but may differ in a detail not shown here. Equal values may be shown once.

Assays:
Test in all cases: AHAS product feedback inhibition assay (leucine, isoleucine, valine)
Type in all cases: biochemical, Camelina sativa
Settings in all cases: for % activity (AHAS activity as % of control): control 100 mM pyruvate, no added amino acid, per experiment (Exp. 1-3); for % activity (AHAS activity as % of control), means: means of 3 experiments
[1] = system: AHAS, enzyme extract of MIDAS™
Description: (§1) Briefly, for each of the three comparators, leaf and stem (petiole) material was bulk-harvested at the 3-4 leaf stage from at least 30 plantlets, snap-frozen in liquid nitrogen, and stored at −80° C. The AHAS in vitro assay was conducted according to the method of Singh et al (1988), with modifications by Yu (2010) and Rustgi (2014). For each comparator, 4 grams of frozen material were ground to a fine powder with a mortar and pestle in liquid nitrogen and homogenized in 1 volume of cold extraction buffer containing 100 mM potassium phosphate buffer (pH7.5), 10 mM sodium pyruvate, 5 mM MgCl2, 100 μM flavin adenine dinucleotide (FAD), and 10% glycerol. Four 2-mL microcentrifuge tubes were used for each comparator. The homogenate was centrifuged at 13,000 rpm for 10 min at 4° C., supernatant collected and re-centrifuged for an additional 10 minutes under the same conditions. For each tube, 1 mL of supernatant was pipetted into a new 2-mL microcentrifuge tube, and protein was precipitated by the addition of 1 mL of saturated ammonium sulfate. The solution was mixed well by vortex and allowed to stand on ice for 20 minutes, then centrifuged at 13,000 rpm at 4° C. The protein pellet was resuspended in 300 μL of reaction buffer containing 50 mM potassium phosphate buffer (pH7.5), 100 mM sodium pyruvate, 10 mM MgCl2, 1 mM EDTA, 10 μM FAD, 100 mM NaCl, and 1 mM thiamine pyrophosphate. Tubes of each comparator were combined, mixed well, kept on ice and immediately used in the AHAS activity and feedback inhibition assays.
(§2) Total protein concentration of the crude extract was determined by the Bradford method (Bradford, 1976). All assays were conducted using 300 μg of total protein each.
(§3) The feedback inhibition assay was performed by combining equal amounts of extract and amino acids leucine, isoleucine, or valine, respectively, in concentrations of 0.1 mM, 1 mM, 10 mM and 100 mM, according to Yu et al. (2010). The reaction mixture contained 50 μL enzyme extract and 50 μL 100 mM sodium pyruvate and inhibitor amino acid. The reaction was incubated at 37° C. for 60 minutes, then stopped and acetolactate converted to acetoin with the addition of 20 μL of 6 N H2SO4 and incubated at 60° C. for 15 minutes. A separate background “blank” was included for each sample group by adding 20 μL of 6 N H2SO4 prior to the addition of the enzyme extracts. Then, 95 μL of 0.55% w/v creatine solution and 95 μL of α-naphthol solution (5.5% w/v in 5 N NaOH) were added and the mixture incubated at 60° C. for a further 15 minutes. After cooling to room temperature for 15 minutes, enzyme activity was determined colorimetrically by reading the absorbance at 530 nm. Three independent experiments were conducted. Experiment 1 and 2 each contained 2 technical replicates, while experiment 3 included 3 technical replicates.

[2] = system: AHAS, enzyme extract of SRS 934
Description: as §1, §2, §3

[3] = system: AHAS, enzyme extract of 14CS0851-01-14
Description: as §1, §2, §3

SMILES | % activity (AHAS activity as % of control) ([1]; 1 mM final concentration) | % activity (AHAS activity as % of control), means ([1]; 1 mM final concentration) [%] | % activity (AHAS activity as % of control) ([1]; 10 mM final concentration) | % activity (AHAS activity as % of control), means ([1]; 10 mM final concentration) [%] | % activity (AHAS activity as % of control) ([1]; 100 mM final concentration) | % activity (AHAS activity as % of control), means ([1]; 100 mM final concentration) [%] | % activity (AHAS activity as % of control) ([2]; 1 mM final concentration) | % activity (AHAS activity as % of control), means ([2]; 1 mM final concentration) [%] | % activity (AHAS activity as % of control) ([2]; 10 mM final concentration) | % activity (AHAS activity as % of control), means ([2]; 10 mM final concentration) [%] | % activity (AHAS activity as % of control) ([2]; 100 mM final concentration) | % activity (AHAS activity as % of control), means ([2]; 100 mM final concentration) [%] | % activity (AHAS activity as % of control) ([3]; 1 mM final concentration) | % activity (AHAS activity as % of control), means ([3]; 1 mM final concentration) [%] | % activity (AHAS activity as % of control) ([3]; 10 mM final concentration) | % activity (AHAS activity as % of control), means ([3]; 10 mM final concentration) [%] | % activity (AHAS activity as % of control) ([3]; 100 mM final concentration) | % activity (AHAS activity as % of control), means ([3]; 100 mM final concentration) [%]
CC(C)C[C@H](N)C(=O)O [Leu] | 50.4% and 63.2% and 45.2% | 52.9 | 39.8% and 58.2% and 39.6% | 45.9 | 33.2% and 53.3% and 38.1% | 41.6 | 51.5% and 83.5% and 45.2% | 60.1 | 45.1% and 70.4% and 43.0% | 52.8 | 37.2% and 59.1% and 40.6% | 45.7 | 48.8% and 63.7% and 57.9% | 56.8 | 41.6% and 58.1% and 39.5% | 46.4 | 34.2% and 52.1% | 40.2
CC(C)[C@H](N)C(=O)O [Val] | 55.6% and 49.8% and 71.2% | 58.9 | 48.0% and 47.5% and 67.0% | 54.2 | 40.7% and 37.8% and 58.2% | 45.6 | 58.3% and 47.9% and 78.7% | 61.7 | 46.5% and 47.0% and 77.8% | 57.1 | 41.0% and 35.4% and 61.7% | 46.1 | 51.0% and 49.1% and 88.5% | 62.8 | 46.9% and 45.0% and 76.1% | 56.0 | 35.5% and 34.8% and 66.2% | 45.5
